Experimental data reported in patent US8404696B2, “Quinazoline-2,4-dione derivative, and medical compositions for the prophylaxis and treatment of cranial nerve disease containing the same” (Shin Poong Pharmaceutical Co., Ltd., priority 2008, dated 2013).
≈ marks a conversion by molar mass, not a printed value.

How the values were obtained:
[1] = system: mixed culture of nerve cells-glial cells; experiment: Protecting effect on NMDA-induced nerve cell death (LDH release); format: cell-based, ICR mouse; settings: 100 μM NMDA, LDH release after 24 hours
In short: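 Embryonic day-14 ICR mouse cortical neurons seeded on cortical glia, Ara-C-treated, then exposed at day 12–15 for 20 min to 100 μM NMDA with compound at 1 or 2 μg/mL. LDH released 24 h later measured colorimetrically as a cell-death index.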

SH-SY5Y cells [2] = experiment: Inhibitory effect on ZnSO4-mediated cytotoxicity (MTT assay); format: cell-based, humans; settings: compound 50 μg/ml; 600 μM zinc sulfate, 24 hours
Description: SH-SY5Y cells were cultured with 3×10^4 cell concentration in 96 well plates, and the compound (50 μg/ml) was treated. After 30 minutes, 600 μM of zinc sulfate was treated to induce toxicity for 24 hours and survival rate of cells was measured by MTT assay.

mouse brain cells = experiment: Inhibitory effect on ROS production in brain cells (DCF-DA, NMDA-induced); format: cell-based; settings: dose suppressing 50% of production of reactive oxygen compared to control, mouse brain cells; for IC50: 24 h, read-out: ROS inhibitory effect ID50
[3] = system: superoxide dismutase (SOD); experiment: Increase of superoxide dismutase (SOD) activity in mouse brain cells; format: cell-based; settings: 100 μg/ml
Description: ROS inhibitory effect of compounds was represented to the dose suppressing 50% of production of reactive oxygen compared to control. […] The activity of superoxide dismutase (SOD) was measured by using a kit acquired in Sigma.

[4] = system: pentylentetrazole (PTZ)-induced convulsion; experiment: Anti-convulsant effect, pentylentetrazole (PTZ) test; format: in vivo; settings: 10 mg/kg intraperitoneally, PTZ 80 mg/kg subcutaneously; for mortality rate / Induction percentage of convulsion: (animals/total); for mortality rate: negative control 70(17/23); for Induction percentage of convulsion: negative control 100(23/23); for Initiation time of convulsion: negative control 5.0 ± 0.7; for Duration of convulsion: negative control 46.7 ± 3.3
In short: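 Compound was given intraperitoneally at 10 mg/kg before PTZ challenge. The read-outs were time to convulsion onset, time until convulsions fully disappeared, and mortality.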

thoracic aorta of rats = experiment: Relaxing effect on thoracic aorta contracted by phenylephrine (organ bath); parameters: species or system rats of SD species; settings: 67 μg/mL, phenylephrine 0.5 μM, mean n = 3; for inhibition at 67 µg/mL: Rattus norvegicus, read-out: Relaxation percentage
In short: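 Thoracic aortic rings (2 mm) from ether-anesthetized male SD rats (250-300 g) were mounted in Krebs buffer gassed with 95% O2/5% CO2 and equilibrated at 1.0 g basal tension for 90 min. After stable contraction with phenylephrine (0.5 μM), compounds were added and relaxation recorded.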

SH-SY5Y cells [5] = experiment: Inhibitory effect on H2O2-mediated cytotoxicity (MTT assay); format: cell-based, humans; settings: 200 μM hydrogen peroxide, 24 hours
Description: SH-SY5Y cells that are oriented by nerve cell line from humans were cultured with 3×10^4 cell concentration in 96 well plate, and the sample was treated. After 30 minutes, 200 μM hydrogen peroxide was treated to induce toxicity for 24 hours. After the reaction was completed, the survival rate of cells was measured by MTT assay.

[6] = system: middle cerebral artery occlusion (MCAO) model; experiment: Anti-stroke effect in middle cerebral artery occlusion (MCAO) model, oral administration before inducing stroke; format: in vivo, rats of SD species; settings: 2 g/kg po; for Infarcted volume (Mean ± standard deviation): negative control 0.45 ± 0.03
[7] = treatment time 0 (right before inducing ischemic stroke)
[8] = treatment time 1 (an hour before inducing ischemic stroke)

Row | Molecule | Inhibitory effect of cell death by NMDA-induced excitable neurotoxicity ([1]; 1 μg/ml compound) | Inhibitory effect of cell death by NMDA-induced excitable neurotoxicity ([1]; 2 μg/ml compound) | inhibitory percentage, zinc-induced toxicity (SH-SY5Y cells [2]) | ROS inhibitory effect ID50 (mouse brain cells) | Increase of SOD activity, compared to control [3] | mortality rate [4] | Induction percentage of convulsion [4] | Initiation time of convulsion [4] | Duration of convulsion [4] | Relaxation percentage (thoracic aorta of rats) | inhibitory percentage, oxidative toxicity induced by hydroperoxide (SH-SY5Y cells [5]; 5 μg/ml) | inhibitory percentage, oxidative toxicity induced by hydroperoxide (SH-SY5Y cells [5]; 50 μg/ml) | inhibition at 67 µg/mL (thoracic aorta of rats) | Inhibitory percentage compared to negative control [6, 7] | Infarcted volume (Mean ± standard deviation) [6, 7] | Inhibitory percentage compared to negative control [6, 8] | Infarcted volume (Mean ± standard deviation) [6, 8] | IC50 (mouse brain cells)
1 | [3-(2,4-dioxo-1,4-dihydro-2H-quinazolin-3-yl)propyl]-{4-[3-(2,4-dioxo-1,4-dihydro-2H-quinazolin-3-yl)propylamino]butyl}heptanoic amide [Compound 35] | 32.5% | 35.7% | 9.1 ± 1.8% | 140.0 ± 18.6 µg/mL | 3.4 ± 7.9 | 33(2/6) % | 100(6/6) % | 5.4 ± 1.6 min | 33.3 ± 7.3 min | 42.6% |  |  |  |  |  |  |  | 
2 | CC(=O)N(CCCCN(CCCn1c(=O)[nH]c2ccccc2c1=O)C(C)=O)CCCn1c(=O)[nH]c2ccccc2c1=O [Compound 4, N-(4-{acetyl-[3-(2,4-dioxo-1,4-dihydro-2H-quinazolin-3-yl)propyl]amino}butyl)-N-[3-(2,4-dioxo-1,4-dihydro-2H-quinazolin-3-yl)propyl]acetamide] | 22.3% | 7.4% |  |  | 0.6 ± 2.2 |  |  |  |  |  | 2.0 ± 0.4% | 18.1 ± 2.1% | 7.7% |  |  |  |  | 
3 | C[N+](C)(C)CCOP(=O)(O)OP(=O)([O-])OC[C@H]1O[C@@H](n2ccc(N)nc2=O)[C@H](O)[C@@H]1O [Citicoline, reference compound] |  |  |  |  |  |  |  |  |  |  |  |  |  | 37.8% | 0.28 ± 0.04 cm^3 | 51.1% | 0.22 ± 0.03 cm^3 | 
4 | O=c1[nH]c2ccccc2c(=O)n1CCCNCCCCNCCCn1c(=O)[nH]c2ccccc2c1=O [Compound 2, 3-(3-{4-[3-(2,4-dioxo-1,4-dihydro-2H-quinazolin-3-yl)propylamino]butylamino}propyl)-1H-quinazoline-2,4-dione] | 11.0% | 0.7% | 21.7 ± 4.1% |  | 2.8 ± 4.0 | 67(4/6) % | 100(6/6) % | 12.9 ± 3.7 min | 35.7 ± 7.1 min |  |  |  | 10.9% |  |  |  |  | 
5 | CS(=O)(=O)N(CCCCNCCCn1c(=O)[nH]c2ccccc2c1=O)CCCn1c(=O)[nH]c2ccccc2c1=O [Compound 12, N-[3-(2,4-dioxo-1,4-dihydro-2H-quinazolin-3-yl)propyl]-N-{4-[3-(2,4-dioxo-1,4-dihydro-2H-quinazolin-3-yl)propylamino]butyl}methansulfonamide] | 5.7% | 2.6% | 12.7 ± 4.3% |  | 2.8 ± 1.8 | 67(4/6) % | 100(6/6) % | 13.7 ± 6.2 min | 39.3 ± 8.8 min |  |  |  | 10.9% |  |  |  |  | 
6 | O=C1CCC(=O)N1CCCNCCCCNCCCn1c(=O)[nH]c2ccccc2c1=O [Compound 42, 3-(3-{4-[3-(2,5-dioxo-pyrrolidine-1-yl)propylamino]butylamino}propyl)-1H-quinazoline-2,4-dione] | 24.6% | 21.8% |  |  | 1.6 ± 2.6 | 17(1/6) % | 100(6/6) % | 9.8 ± 4.1 min | 18.2 ± 8.6 min |  |  |  | 14.6% |  |  |  |  | 138 ± 21 µg/mL (≈ 321 µM)
7 | NCCCNCCCCNCCCn1c(=O)[nH]c2ccccc2c1=O [Compound 1, 3-{3-[4-(3-aminopropylamino)butylamino]propyl}-1H-quinazoline-2,4-dione] | 16.1% | 2.4% |  |  | 0.7 ± 5.6 | 67(4/6) % | 83(5/6) % | 16.1 ± 9.0 min | 43.9 ± 9.0 min |  |  |  | 12.8% |  |  |  |  | 73 ± 14.1 µg/mL (≈ 210 µM)
